Laboratory results: patent US12568967B2, “Compositions comprising pyridine carboxylate herbicides with synthetic auxin herbicides or auxin transport inhibitors” (priority 2018, dated 2026)
“And” between values parts separate entries of the source, which are not always exact repeats. Identical values can stand only once. Like-named read-outs stand apart in the source and are kept apart here.

How the values were obtained:
[1] = tested on: Hordeum vulgare (spring barley, HORVS); assay type: in vivo
[2] = tested on: Rumex obtusifolius (broad-leaf dock, RUMOB); assay: Greenhouse postemergence trial RUMOB; assay type: in vivo; details: Compound A 10 g/ha
[3] = tested on: Matricaria inodora (false chamomile, MATIN); assay: Greenhouse postemergence trial MATIN; assay type: in vivo; details: MATIN; for % visual injury, Obs: applied alone
Description: (§1) Seeds of the desired test plant species were planted in a 90:10% v/v (volume/volume) mixture of PRO-MIX® BX (Premier Tech Horticulture, Quakertown, PA, USA) and PROFILE® GREENS GRADE™ (Profile Products LLC, Buffalo Grove, IL, USA) planting mixture, which typically has a pH of 5.2 to 6.2 and an organic matter content of at least 50 percent, in plastic pots with a surface area of 103.2 square centimeters (cm^2). […] The plants were grown for 7-36 days (d) in a greenhouse with an approximate 14-hour (h) photo-period which was maintained at about 23° C. during the day and 22° C. during the night. Nutrients and water were added on a regular basis and supplemental lighting was provided with overhead metal halide 1000-Watt lamps as necessary. The plants were employed for testing when they reached the second or third true leaf stage.
(§2) Emulsifiable concentrates of each of each pyridine carboxylate herbicide (Compound A or Compound B) were prepared at 100 grams acid equivalent per liter (g ae/L). The emulsifiable concentrates also included a safener, cloquintocet-mexyl, at 120 grams active ingredient per liter (g ai/L), unless otherwise noted below. An aliquot of each emulsifiable concentrate was placed in a 25 mL glass vial and diluted with an aqueous mixture of 1.25% (v/v) ACTIROB® B esterified rapeseed oil (Bayer Crop Science, Research Triangle Park, NC, USA) or MSO® Concentrate with LECI-TECH® methylated soybean oil (Loveland Products, Loveland, CO, USA) to obtain concentrated stock solutions at the highest application rate for each herbicide, based upon a 12 milliliter (mL) application volume at a rate of 187 liters per hectare (L/ha). The concentrated stock solutions were further diluted with an aqueous mixture of 1.25% v/v ACTIROB® B or MSO® Concentrate with LECI-TECH® to obtain stock solutions at reduced application rates for each herbicide. Spray solutions of the herbicide combinations (Compound A or Compound B plus synthetic auxin herbicide or auxin transport inhibitor) were prepared by adding weighed amounts or aliquots of the synthetic auxin herbicide or auxin transport inhibitor to the stock solutions of Compound A or Compound B to form 12-mL spray solutions in two-way combinations.
(§3) The spray solutions were applied to the plant material with an overhead Mandel track sprayer equipped with 8002E nozzles calibrated to deliver 187 L/ha over an application area of 0.503 square meters (m^2) at a spray height of 18 inches (43 centimeters (cm)) above the average plant canopy. Control plants were sprayed in the same manner with the solvent blank. All pyridine carboxylate herbicide (component a) application rates are given as “g ae/ha” and all synthetic auxin herbicide or auxin transport inhibitor (component b) application rates are given as “g ai/ha.”
(§4) The treated plants and control plants were placed in a greenhouse as described above and watered by sub-irrigation to prevent wash-off of the test compounds. After 20-22 d, the condition of the test plants as compared with that of the control plants was determined visually and scored on a scale of 0 to 100 percent where 0 corresponds to no injury and 100 corresponds to complete kill.

[4] = tested on: Setaria faberi (giant foxtail, SETFA); assay: Greenhouse postemergence trial SETFA; assay type: in vivo; details: Compound A 10 g/ha
Description: as §1, §2, §3, §4

[5] = tested on: Brassica napus (winter rape, BRSNW); assay: Greenhouse postemergence trial BRSNW; assay type: in vivo; details: for plant injury at 10 g/ha / plant injury at 15 g/ha: Brassica napus, post-emergence
[6] = tested on: Lamium purpureum (purple deadnettle, LAMPU); assay: Greenhouse postemergence trial LAMPU; details: for % visual injury, Obs: applied alone
Description: (§5) The plants were grown for 7-36 days (d) in a greenhouse with an approximate 14-hour (h) photo-period which was maintained at about 23° C. during the day and 22° C. during the night. Nutrients and water were added on a regular basis and supplemental lighting was provided with overhead metal halide 1000-Watt lamps as necessary. The plants were employed for testing when they reached the second or third true leaf stage.
(§6) The emulsifiable concentrates also included a safener, cloquintocet-mexyl, at 120 grams active ingredient per liter (g ai/L), unless otherwise noted below.
(§7) Control plants were sprayed in the same manner with the solvent blank. All pyridine carboxylate herbicide (component a) application rates are given as “g ae/ha” and all synthetic auxin herbicide or auxin transport inhibitor (component b) application rates are given as “g ai/ha.”
as §4

[7] = tested on: Amaranthus retroflexus (pigweed, AMARE); assay: Greenhouse postemergence trial AMARE; assay type: in vivo;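 note: Greenhouse-grown plants sprayed at second to third true leaf stage, injury rated by eye after 20-22 d versus solvent-blank sprayed controls, 0 = no injury, 100 = complete kill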
Description: as §5, §6, §7, §4

[8] = tested on: Triticum aestivum (winter wheat, TRZAW); assay: Greenhouse postemergence crop phytotoxicity TRZAW; assay type: in vivo; details: TRZAW
Description: as §1, §2, §3, §4

[9] = Hordeum vulgare (spring barley, HORVS), in vivo
[10] = Lamium purpureum, post-emergence, read-out: % visual injury Obs

N#CCOC(=O)c1nc(-c2ccc3cc[nH]c3c2F)c(F)c(N)c1Cl [Compound A, cyanomethyl 4-amino-3-chloro-5-fluoro-6-(7-fluoro-1H-indol-6-yl)pyridine-2-carboxylate]
HORVS Obs (% visual injury) ([1]; Compound A 10 g/ha): 0% | HORVS % visual injury Obs ([1]; Compound A 10 g/ha (Table 42)): 0% | HORVS % visual injury Obs ([1]; Compound A 10 g/ha (Table 43)): 0% | HORVS % visual injury Obs ([1]; Compound A 10 g/ha (Table 44)): 0% | % visual injury Obs ([1]; HORVS, Compound A 10 g/ha): 0% | % visual injury, Obs ([1]; HORVS, Compound A 10 g/ha): 0% | visual injury, Obs ([1]; HORVS, Compound A 10 g/ha alone): 0% | % visual injury Obs ([1]; HORVS, Compound A 15 g/ha): 0% | visual injury, Obs ([1]; HORVS, Compound A 15 g/ha alone): 0% | % visual injury (Obs) ([1]; HORVS, alone 10 g/ha): 0% | % visual injury Obs ([1]; HORVS, alone 10 g/ha): 0% | % visual injury Obs ([1]; HORVS, alone, 15 g/ha): 0% | % visual injury, Obs ([1]; HORVS, applied alone, 10 g/ha): 0% | % visual injury, Obs ([1]; HORVS, applied alone, 15 g/ha): 0% | % visual injury (crop phytotoxicity) [1, 9]: 0% | % visual injury, Obs (crop phytotoxicity) [1, 9]: 0% | % visual injury (crop phytotoxicity) ([1]; c1-2 Compound A 7.5/10, c3 Quinclorac 140, c4-5 A 7.5/10 + Quinclorac 140 g/ha): 0% | % visual injury (crop phytotoxicity) ([1]; c1-3 Compound A 7.5/10/15, c4-5 Fluroxypyr-MHE 100/140, c6-8, c9-11 A 7.5/10/15 + Fluroxypyr-MHE 100, 140 g/ha): 0% | % visual injury (crop phytotoxicity) ([1]; c1-3 Compound A 7.5/10/15, c4 Aminopyralid 5, c5-7 A 7.5/10/15 + Aminopyralid 5 g/ha): 0% | % visual injury (crop phytotoxicity) ([1]; c1-3 Compound A 7.5/10/15, c4 Halauxifen-methyl 6, c5-7 A 7.5/10/15 + Halauxifen-methyl 6 g/ha): 0% | RUMOB Obs (% visual injury) [2]: 10% | RUMOB Obs (% visual injury) ([2]; without safener): 35% | % visual injury, Obs ([2]; RUMOB): 35% | visual injury, Obs ([3]; Compound A 10 g/ha alone): 60% | visual injury, Obs ([3]; Compound A 15 g/ha alone): 60% | % visual injury (Obs) ([3]; alone 10 g/ha): 93% | % visual injury Obs ([3]; alone 10 g/ha): 60% | % visual injury Obs ([3]; alone, 15 g/ha): 60% | % visual injury, Obs ([3]; 10 g/ha): 60% | % visual injury, Obs ([3]; 15 g/ha): 60% | pest or weed control at […] ([3]; Tripleurospermum inodorum, post-emergence, Compound A 7.5 g/ha, read-out: % visual injury Obs): 30% | pest or weed control at 10 g/ha ([3]; Tripleurospermum inodorum, post-emergence, Compound A 10 g/ha, read-out: % visual injury Obs): 60% | pest or weed control at 15 g/ha ([3]; Tripleurospermum inodorum, post-emergence, Compound A 15 g/ha, read-out: % visual injury Obs): 60% | SETFA Obs (% visual injury) [4]: 70% | SETFA Obs (% visual injury) ([4]; without safener): 0% | % visual injury, Obs ([4]; SETFA): 0% | visual injury, Obs ([5]; BRSNW, Compound A 10 g/ha alone): 65% | visual injury, Obs ([5]; BRSNW, Compound A 15 g/ha alone): 80% | % visual injury (Obs) ([5]; BRSNW, alone 10 g/ha): 68% | plant injury at 10 g/ha ([5]; BRSNW, Compound A 10 g/ha, read-out: % visual injury Obs): 65% | plant injury at 10 g/ha ([5]; BRSNW, Compound A 10 g/ha, read-out: % visual injury, Obs): 68% | plant injury at 15 g/ha ([5]; BRSNW, Compound A 15 g/ha, read-out: % visual injury Obs): 80% | plant injury at 10 g/ha ([5]; BRSNW, alone, 10 g/ha, read-out: % visual injury Obs): 65% | plant injury at 15 g/ha ([5]; BRSNW, alone, 15 g/ha, read-out: % visual injury Obs): 80% | plant injury at 15 g/ha ([5]; BRSNW, applied alone, 15 g/ha, read-out: % visual injury, Obs): 80% | BRSNW Obs (% visual injury) ([5]; Compound A 10 g/ha, without safener): 65% | visual injury, Obs ([6]; LAMPU, Compound A 10 g/ha alone): 70% | % visual injury Obs ([6]; LAMPU, Compound A 15 g/ha): 75% | visual injury, Obs ([6]; LAMPU, Compound A 15 g/ha alone): 75% | % visual injury (Obs) ([6]; LAMPU, alone 10 g/ha): 90% | % visual injury Obs ([6]; LAMPU, alone 10 g/ha): 70% | % visual injury Obs ([6]; LAMPU, alone, 15 g/ha): 75% | % visual injury, Obs ([6]; LAMPU, 10 g/ha): 70% | % visual injury, Obs ([6]; LAMPU, 15 g/ha): 75% | pest or weed control at 10 g/ha [6, 10]: 70% | pest or weed control at 15 g/ha [6, 10]: 75% | % visual injury, Obs ([7]; AMARE, Compound A 10 g/ha): 100% and 90% | % visual injury (Obs) ([7]; AMARE, alone 10 g/ha): 98% and 90% | % visual injury, Obs ([7]; AMARE, applied alone, 10 g/ha): 85% | AMARE Obs (% visual injury) ([7]; Compound A 10 g/ha): 100% and 98% | AMARE % visual injury Obs ([7]; Compound A 10 g/ha (Table 42)): 100% | AMARE % visual injury Obs ([7]; Compound A 10 g/ha (Table 43)): 100% | AMARE % visual injury Obs ([7]; Compound A 10 g/ha (Table 44)): 100% | % visual injury Obs ([8]; Compound A 10 g/ha): 0% | visual injury, Obs ([8]; Compound A 10 g/ha alone): 0% | % visual injury Obs ([8]; Compound A 15 g/ha): 0% | visual injury, Obs ([8]; Compound A 15 g/ha alone): 0%
